Test results published in the supplement of paper PMC7695840.
Counter-ions that a name gives are not always drawn.

Key:
[1] = tested on: Staphylococcus aureus MW2 (mecA+); assay: IC50 (growth, competition assay); details: cefoxitin: subinhibitory
Outline: (§1)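 Per plate, DsRed (540/590) and GFP (485/520) readings were normalized between the medians of the single-strain controls, after which No Treatment was fixed at 0.5. These readings came from a 1:1 mix of pre-induced fluorescent S. aureus MW2 strains with and without the resistance gene, grown for 20 h at 37 °C and 90% humidity, unshaken, in LB with a daily-set subinhibitory drug dose in 1536-well plates. Per-strain IC50 meant the dose halving the No Treatment signal, or the maximal signal.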

[2] = tested on: Staphylococcus aureus MW2 delta-mecA (mecA-); assay: IC50 (growth, competition assay); details: cefoxitin: subinhibitory
Outline: as §1

Compound	IC50 ([1]; fluorescent label: DsRed)	IC50 ([1]; fluorescent label: GFP)	IC50 ([2]; fluorescent label: DsRed)	IC50 ([2]; fluorescent label: GFP)
C[C@H]1c2cccc(O)c2C(=O)C2=C(O)[C@]3(O)C(=O)C(C(N)=O)=C(O)[C@@H](N(C)C)[C@@H]3[C@@H](O)[C@@H]21 [Doxycycline hydrochloride]	< 9.85 µM	< 9.85 µM	< 9.85 µM	< 9.85 µM
O=[N+]([O-])C=Cc1ccc2c(c1)OCO2 [MNS]	20.5 µM	27.1 µM	< 9.85 µM	< 9.85 µM
C[C@H]1COc2c(N3CCN(C)CC3)c(F)cc3c(=O)c(C(=O)O)cn1c23 [LEVAQUIN]	< 9.85 µM	< 9.85 µM	< 9.85 µM	< 9.85 µM
Cc1ncc(-c2ccnc(Nc3ccc(S(C)(=O)=O)cc3)n2)n1C(C)C [AZD5438]	> 150 µM	> 150 µM	10.3 µM	< 9.85 µM
COc1cc2c(Oc3ccc(NC(=O)C4(C(=O)Nc5ccc(F)cc5)CC4)cc3F)ccnc2cc1OCCCN1CCOCC1	41.9 µM	57.4 µM	13.2 µM	12.1 µM
C[C@H](Oc1cc(-c2cnn(C3CCNCC3)c2)cnc1N)c1c(Cl)ccc(F)c1Cl [(S)-crizotinib]	75 µM	101 µM	< 9.85 µM	< 9.85 µM
CC[C@H]1OC(=O)[C@H](C)[C@@H](O[C@H]2C[C@@](C)(OC)[C@@H](O)[C@H](C)O2)[C@H](C)[C@@H](O[C@@H]2O[C@H](C)C[C@H](N(C)C)[C@H]2O)[C@](C)(O)C[C@@H](C)CN(C)[C@H](C)[C@@H](O)[C@]1(C)O [Azithromycin (Zithromax)]	22.8 µM	15.7 µM	0.827 µM	1.29 µM
Cc1c(-c2ccc(O)cc2)n(Cc2ccc(OCCN3CCCCCC3)cc2)c2ccc(O)cc12 [Bazedoxifene HCl]	56.8 µM	56.6 µM	13.5 µM	28.3 µM
C[C@H]1O[C@@H](n2cc(F)c(=O)[nH]c2=O)[C@H](O)[C@@H]1O [FURTULON]	10.3 µM	< 9.85 µM	< 9.85 µM	< 9.85 µM
Cc1cc(F)c(Nc2ncnc3cc(OCc4ccccc4)ccc23)cc1O	> 150 µM	138 µM	139 µM	> 150 µM
Cc1cc(Nc2cc(N3CCN(C)CC3)nc(/C=C/c3ccccc3)n2)n[nH]1 [ENMD-2076]	47.6 µM	55.2 µM	6.48 µM	4.72 µM
N=C(NCCCCCCNC(=N)NC(=N)Nc1ccc(Cl)cc1)NC(=N)Nc1ccc(Cl)cc1 [LISIUM]	< 9.85 µM	< 9.85 µM	< 9.85 µM	< 9.85 µM
CCN1CCN(c2cc3c(cc2F)c(=O)c(C(=O)O)cn3C2CC2)CC1 [BAYTRIL]	< 9.85 µM	< 9.85 µM	< 9.85 µM	< 9.85 µM
CCN(CC)C(=S)SSC(=S)N(CC)CC [Tetraethylthiuram disulfide]	33.4 µM	36.1 µM	< 9.85 µM	< 9.85 µM
CC(=O)OCC1=C(C(=O)O)N2C(=O)[C@@H](NC(=O)CSc3ccncc3)[C@H]2SC1 [CEFADYL]	< 9.85 µM	< 9.85 µM	< 9.85 µM	< 9.85 µM
COC(=O)[C@@]1(C)CCC[C@]2(C)c3ccc(O)c(C(C)C)c3CCC12 (some centres not stated) [TOTAROL-19-CARBOXYLIC ACID, METHYL ESTER]	27.6 µM	62.8 µM	66 µM	15.6 µM
CN(N=O)C(=O)N[C@@H]1[C@@H](O)[C@H](O)[C@@H](CO)O[C@@H]1O [ZANOSAR]	< 9.85 µM	< 9.85 µM	< 9.85 µM	< 9.85 µM
CO/N=C(\C(=O)N[C@@H]1C(=O)N2C(C(=O)OCOC(=O)C(C)(C)C)=C(/C=C\c3scnc3C)CS[C@H]12)c1csc(N)n1 [Cefditoren pivoxil]	16.7 µM	13.3 µM	< 0.498 µM	< 0.498 µM
CCCCCCCCCCCCCCCC(=O)O[C@@H]1[C@@H](O)[C@@H](O)[C@@H]([C@H](NC(=O)[C@@H]2C[C@@H](CCC)CN2C)[C@H](C)Cl)O[C@@H]1SC [Clindamycin palmitate HCl]	< 9.85 µM	< 9.85 µM	< 9.85 µM	< 9.85 µM
COC(=O)CC[C@@H](C)[C@H]1CC[C@H]2[C@@H]3CC[C@@H]4C[C@H](O)CC[C@]4(C)[C@H]3C[C@H](O)[C@]12C [METHYL DEOXYCHOLATE]	15.4 µM	26.9 µM	13.9 µM	9.91 µM
O=C(O)c1cn(-c2ccc(F)cc2)c2cc(N3CCNCC3)c(F)cc2c1=O [Sarafloxacin HCl]	< 0.498 µM	< 0.498 µM	< 0.498 µM	< 0.498 µM
C=CCc1ccc(O)c(-c2cc(CC=C)ccc2O)c1 [Magnolol]	40.1 µM	49.9 µM	12 µM	8.24 µM
O=C(O)c1ccc(N2C(=O)/C(=C\c3ccc(-c4ccc([N+](=O)[O-])cc4)o3)C=C2c2ccccc2)cc1 [4E1RCat]	54.5 µM	78.7 µM	18 µM	< 9.85 µM
O=C1OCCN1/N=C/c1ccc([N+](=O)[O-])o1 [FUROXONE]	< 9.85 µM	< 9.85 µM	< 9.85 µM	< 9.85 µM
CCOC(=O)CCC(=O)O[C@H]1[C@H](O[C@@H]2[C@@H](C)[C@H](O[C@H]3C[C@@](C)(OC)[C@@H](O)[C@H](C)O3)[C@@H](C)C(=O)O[C@H](CC)[C@@](C)(O)[C@H](O)[C@@H](C)C(=O)[C@H](C)C[C@@]2(C)O)O[C@H](C)C[C@@H]1N(C)C [Erythromycin Ethylsuccinate]	< 9.85 µM	< 9.85 µM	< 9.85 µM	< 9.85 µM
N[C@@H]1CN(c2c(F)cc3c(=O)c(C(=O)O)cn([C@@H]4C[C@@H]4F)c3c2Cl)CC12CC2 [Sitafloxacin hydrate]	< 0.498 µM	< 0.498 µM	< 0.498 µM	< 0.498 µM
C=CC(=O)Nc1cccc(Sc2nc(Nc3ccc(N4CCN(C)CC4)cc3)ncc2Cl)c1 [WZ8040]	17.1 µM	28.9 µM	2.02 µM	2.67 µM

Compound	IC50 ([1]; fluorescent label: DsRed)	IC50 ([1]; fluorescent label: GFP)	IC50 ([2]; fluorescent label: DsRed)	IC50 ([2]; fluorescent label: GFP)
CS(=O)(=O)c1ccc([C@@H](O)[C@@H](CF)NC(=O)C(Cl)Cl)cc1 [NUFLOR]	< 9.85 µM	< 9.85 µM	< 9.85 µM	< 9.85 µM
CC(C)c1nc(CN(C)C(=O)N[C@@H](CCN2CCOCC2)C(=O)N[C@H](CC[C@H](Cc2ccccc2)NC(=O)OCc2cncs2)Cc2ccccc2)cs1 [Cobicistat (GS-9350)]	109 µM	107 µM	29.4 µM	27.6 µM
O=c1[nH]cc(F)c(=O)[nH]1 [5-Fluorouracil]	< 9.85 µM	< 9.85 µM	< 9.85 µM	< 9.85 µM
CC1COc2c(N3CCN(C)CC3)c(F)cc3c(=O)c(C(=O)O)cn1c23 (configuration not stated) [FLOXIN]	< 9.85 µM	< 9.85 µM	< 9.85 µM	< 9.85 µM
CO[C@H]1/C=C/O[C@@]2(C)Oc3c(C)c(O)c4c(O)c(c5c(nc6cc(C)ccn65)c4c3C2=O)NC(=O)/C(C)=C\C=C\[C@H](C)[C@H](O)[C@@H](C)[C@@H](O)[C@@H](C)[C@H](OC(C)=O)[C@@H]1C [Rifaximin (Xifaxan)]	< 0.498 µM	< 0.498 µM	< 0.498 µM	< 0.498 µM
Clc1ccccc1C(c1ccccc1)(c1ccccc1)n1ccnc1 [Clotrimazole]	16.1 µM	15.8 µM	< 9.85 µM	< 9.85 µM
CN1C[C@@H]2C[C@H]1CN2c1cc2c(cc1F)c(=O)c(C(=O)O)cn2C1CC1 [Danofloxacin Mesylate]	< 9.85 µM	< 9.85 µM	< 9.85 µM	< 9.85 µM
O=C(O)c1ccc(-n2nc(-c3ccccc3O)nc2-c2ccccc2O)cc1 [Deferasirox (Exjade)]	91.6 µM	57.1 µM	22.6 µM	24.3 µM
COc1ccc(COc2ccc(Cc3cnc(N)nc3N)cc2OC)cc1 [GW2580]	15.1 µM	16.2 µM	< 9.85 µM	< 9.85 µM
CC1OC(n2cc(F)c(=O)[nH]c2=O)C(O)C1O (configuration not stated) [5-fluoro-5'-deoxyuridine]	< 9.85 µM	< 9.85 µM	< 9.85 µM	< 9.85 µM
O=C(Nc1ncc([N+](=O)[O-])s1)c1ccc([N+](=O)[O-])c(Cl)c1	< 9.85 µM	< 9.85 µM	13.2 µM	15.2 µM
O=C(O[C@@H]1Cc2c(O)cc(O)cc2O[C@@H]1c1cc(O)c(=O)c2c(O)c(O)cc([C@H]3Oc4cc(O)cc(O)c4C[C@H]3O)c2c1)c1cc(O)c(O)c(O)c1 [THEAFLAVIN MONOGALLATES]	111 µM	93.4 µM	14.8 µM	20.5 µM
O=C(N[C@@H](Cc1ccccc1)C(=O)CCl)OCc1ccccc1 [Z-L-Phe chloromethyl ketone]	< 9.85 µM	< 9.85 µM	< 9.85 µM	< 9.85 µM
CO[C@H]1/C=C/O[C@@]2(C)Oc3c(C)c(O)c4c(O)c(c(/C=N/N5CCN(C6CCCC6)CC5)c(O)c4c3C2=O)NC(=O)/C(C)=C\C=C\[C@H](C)[C@H](O)[C@@H](C)[C@@H](O)[C@@H](C)[C@H](OC(C)=O)[C@@H]1C [Rifapentine]	< 0.498 µM	< 0.498 µM	< 0.498 µM	< 0.498 µM
O=C(O[C@@H]1Cc2c(O)cc(O)cc2O[C@@H]1c1ccc(O)c(O)c1)c1cc(O)c(O)c(O)c1 [EPICATECHIN MONOGALLATE]	83.7 µM	140 µM	22.9 µM	12.2 µM
O=C(NC[C@H]1CN(c2ccc(N3CCOCC3=O)cc2)C(=O)O1)c1ccc(Cl)s1 [XARELTO]	< 9.85 µM	< 9.85 µM	< 9.85 µM	< 9.85 µM
N#CC(c1ccc(Cl)cc1)c1c(Cl)cc(-n2ncc(=O)[nH]c2=O)cc1Cl (configuration not stated) [CLINACOX]	15.2 µM	23 µM	< 9.85 µM	< 9.85 µM
CC(=O)OCC1=C(C(=O)O)N2C(=O)[C@@H](NC(=O)Cc3cccs3)[C@H]2SC1 [KEFLIN]	< 9.85 µM	< 9.85 µM	< 9.85 µM	< 9.85 µM
CC[C@H](C)[C@H](N)C1=N[C@H](C(=O)N[C@@H](CC(C)C)C(=O)N[C@H](CCC(=O)[O-])C(=O)N[C@H](C(=O)N[C@H]2CCCCNC(=O)[C@H](CC(N)=O)NC(=O)[C@@H](CC(=O)[O-])NC(=O)[C@H](Cc3cnc[nH]3)NC(=O)[C@@H](Cc3ccccc3)NC(=O)[C@H]([C@@H](C)CC)NC(=O)[C@@H](CCCN)NC2=O)[C@@H](C)CC)CS1.[Zn+2] [Bacitracin zinc]	35.2 µM	49.1 µM	4.32 µM	4.06 µM
OCCN1CCN(CC/C=C2/c3ccccc3Sc3ccc(C(F)(F)F)cc32)CC1 [cis-(Z)-Flupenthixol dihydrochloride]	34.6 µM	42.6 µM	12.9 µM	< 9.85 µM
CCN1CCN(C(=O)N[C@@H](C(=O)N[C@@H]2C(=O)N3C(C(=O)O)=C(CSc4nnnn4C)CS[C@H]23)c2ccc(O)cc2)C(=O)C1=O [CEFOBID]	19.5 µM	24.5 µM	< 9.85 µM	< 9.85 µM
O=C(O)Cc1cc(I)c(Oc2cc(I)c(O)c(I)c2)c(I)c1 [TETRAC]	< 9.85 µM	< 9.85 µM	< 9.85 µM	< 9.85 µM
CCC[C@H](NC(=O)/C(C#N)=C/c1cccc(Br)n1)c1ccccc1 [WP1130]	13.7 µM	27.5 µM	2.28 µM	0.904 µM
CCN(CC)CCN(Cc1ccc(-c2ccc(C(F)(F)F)cc2)cc1)C(=O)Cn1c(SCc2ccc(F)cc2)nc(=O)c2c1CCC2	< 9.85 µM	10.2 µM	< 9.85 µM	< 9.85 µM
CC1(C)S[C@@H]2[C@H](NC(=O)C(C(=O)O)c3ccccc3)C(=O)N2[C@H]1C(=O)O (some centres not stated) [Carbenicillin disodium]	20.8 µM	42.1 µM	< 9.85 µM	< 9.85 µM
CC(=O)OCC1=C(C(=O)O)N2C(=O)[C@@H](NC(=O)Cc3cccs3)[C@H]2SC1 [Cephalothin sodium]	< 9.85 µM	< 9.85 µM	< 9.85 µM	< 9.85 µM
